Data as given in ChEMBL document CHEMBL1201862, “PubChem BioAssay data set” (2004).
Counter-ions that a name gives are not always drawn. Values belong to the molecule of their own block, whether it stands above or below them. Active and inactive are the calls of the source.

Columns and labels:
[1] = tested on: HEK293; assay: NOD2 signaling inhibitors in MDP-stimulated cells, cell-based, uHTS, luminescence (AID 2001); type: functional; details: Homo sapiens
[2] = tested on: Streptococcus sp. 'group A'; assay: growth inhibition of control SK(-) GAS strain, dose response, counter-screen for streptokinase expression inhibitor project, luminescence, kanamycin, BacTiterGlo, confirmation (AID 1900); type: functional, organism-based
[3] = tested on: HEK293; assay: NOD1 signaling inhibitors, primary screen, cell-based, luminescence, uHTS (AID 1578); type: functional; details: Homo sapiens
[4] = tested on: HEK293; assay: cells; type: functional, cell-based; details: Homo sapiens
[5] = tested on: HEK293; assay: cells; details: Homo sapiens
[6] = tested on: HEK293; assay: cells; type: functional, cell-based; details: Homo sapiens; remark: listed apart in the source
[7] = tested on: Streptococcus; assay: Group A Streptococcus viability loss, dose response, counter-screen for streptokinase expression inhibitor project, luminescence, BacTiterGlo (AID 1915); type: functional, organism-based;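 further: potency for reduction of bacterial viability or growth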
[8] = target: Glucose-6-phosphate 1-dehydrogenase (Homo sapiens, UniProt P11413); assay: human G6PD enzyme inhibitors, dose response, selectivity assay for P. falciparum G6PD inhibitor project, biochemical, fluorescence (AID 504792); type: functional
Glucose-6-phosphate 1-dehydrogenase, sequence (P11413 whole entry): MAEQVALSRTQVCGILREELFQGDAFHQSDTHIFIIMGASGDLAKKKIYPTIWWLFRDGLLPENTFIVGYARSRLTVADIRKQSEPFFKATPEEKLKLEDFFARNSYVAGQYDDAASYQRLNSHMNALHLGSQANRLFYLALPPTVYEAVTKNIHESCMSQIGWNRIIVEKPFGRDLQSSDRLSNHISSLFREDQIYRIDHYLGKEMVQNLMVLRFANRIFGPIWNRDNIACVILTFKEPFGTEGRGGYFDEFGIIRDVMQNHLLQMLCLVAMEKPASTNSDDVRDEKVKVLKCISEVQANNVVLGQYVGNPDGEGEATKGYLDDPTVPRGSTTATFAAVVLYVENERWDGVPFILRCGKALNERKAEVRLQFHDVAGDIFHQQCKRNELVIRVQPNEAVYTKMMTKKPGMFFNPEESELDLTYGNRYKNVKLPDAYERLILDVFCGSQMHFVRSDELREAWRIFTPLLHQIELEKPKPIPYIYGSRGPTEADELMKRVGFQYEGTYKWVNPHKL

[9] = target: T1, DNA repair protein RAD52 homolog (Homo sapiens, UniProt P43351); type: functional, biochemical
T1 sequence (P43351 whole entry): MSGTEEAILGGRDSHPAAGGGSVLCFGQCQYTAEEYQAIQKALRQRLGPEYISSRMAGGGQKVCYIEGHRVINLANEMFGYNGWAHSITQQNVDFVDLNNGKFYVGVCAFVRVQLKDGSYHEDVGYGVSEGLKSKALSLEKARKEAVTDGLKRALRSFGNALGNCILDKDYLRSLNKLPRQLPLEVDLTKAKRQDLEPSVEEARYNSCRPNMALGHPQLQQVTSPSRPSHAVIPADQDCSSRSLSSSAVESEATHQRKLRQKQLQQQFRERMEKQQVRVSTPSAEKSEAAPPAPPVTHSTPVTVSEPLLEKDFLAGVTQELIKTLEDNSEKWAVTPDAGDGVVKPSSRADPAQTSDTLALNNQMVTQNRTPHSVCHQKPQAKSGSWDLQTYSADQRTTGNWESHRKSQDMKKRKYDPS

[10] = target: Voltage-gated inwardly rectifying potassium channel KCNH2 (Homo sapiens, UniProt Q12809); details: Potency;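 further: confirmatory quantitative high-throughput screen measuring inhibition of hERG channel activity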
[11] = target: DNA dC->dU-editing enzyme APOBEC-3A (Homo sapiens, UniProt P31941); assay: Dose Response confirmation of small molecule APOBEC3A DNA Deaminase Inhibitors via a fluorescence-based single-stranded DNA deaminase assay. [Related pubchem assays (depositor defined):AID493011, AID493024]; type: functional
DNA dC->dU-editing enzyme APOBEC-3A, sequence (P31941 whole entry): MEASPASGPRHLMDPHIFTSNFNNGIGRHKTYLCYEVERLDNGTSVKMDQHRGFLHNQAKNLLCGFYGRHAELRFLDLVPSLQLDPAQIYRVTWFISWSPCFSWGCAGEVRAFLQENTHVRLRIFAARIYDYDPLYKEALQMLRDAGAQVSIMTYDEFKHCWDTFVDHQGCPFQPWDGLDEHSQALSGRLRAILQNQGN

[12] = target: DNA dC->dU-editing enzyme APOBEC-3G (Homo sapiens, UniProt Q9HC16); type: functional;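 further: Dose-response counterscreen measuring inhibition of APOBEC3G DNA deaminase activity, run while confirming APOBEC3A inhibitors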
DNA dC->dU-editing enzyme APOBEC-3G, sequence (Q9HC16 whole entry, the tested form may be a part): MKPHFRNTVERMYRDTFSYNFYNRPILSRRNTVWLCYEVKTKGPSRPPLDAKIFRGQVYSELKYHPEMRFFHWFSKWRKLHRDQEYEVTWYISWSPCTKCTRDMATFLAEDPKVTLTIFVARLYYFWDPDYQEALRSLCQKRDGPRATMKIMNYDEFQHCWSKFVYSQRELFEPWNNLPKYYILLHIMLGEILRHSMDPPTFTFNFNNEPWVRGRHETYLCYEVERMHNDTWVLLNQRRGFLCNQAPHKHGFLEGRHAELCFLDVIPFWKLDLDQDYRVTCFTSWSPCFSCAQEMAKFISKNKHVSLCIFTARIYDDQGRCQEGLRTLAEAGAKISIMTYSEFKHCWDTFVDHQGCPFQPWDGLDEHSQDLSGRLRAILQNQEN

[13] = target: T2, Carboxy-terminal domain RNA polymerase II polypeptide A small phosphatase 1 (Homo sapiens, UniProt Q9GZU7); assay: inhibitors of CTDSP1, concentration-response testing, biochemical assay, absorbance-based, actives from ultra-high-throughput screening (AID 540297); type: functional
T2 sequence (Q9GZU7 whole entry): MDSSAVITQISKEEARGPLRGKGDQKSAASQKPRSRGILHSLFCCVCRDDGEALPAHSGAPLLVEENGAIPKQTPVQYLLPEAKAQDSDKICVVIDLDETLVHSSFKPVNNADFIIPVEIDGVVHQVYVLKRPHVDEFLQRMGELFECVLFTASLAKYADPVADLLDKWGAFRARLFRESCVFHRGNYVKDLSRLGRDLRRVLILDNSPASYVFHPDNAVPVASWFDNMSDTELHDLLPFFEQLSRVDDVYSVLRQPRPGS

[14] = target: Large T antigen (Simian virus 40, UniProt P03070); type: functional, Betapolyomavirus macacae;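 further: Confirmatory-stage PubChem screen for compounds that inhibit SV40 T antigen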
[15] = target: Dual specificity tyrosine-phosphorylation-regulated kinase 1A (Rattus norvegicus, UniProt Q63470); type: biochemical, Homo sapiens
[16] = target: Peroxisome proliferator-activated receptor gamma/Nuclear receptor coactivator 2 (Homo sapiens, UniProt P37231); assay: (§1) TR-FRET dose response biochemical High Throughput Screening assay for agonists of the steroid receptor coactivator 2 (SRC-2) recruitment by the peroxisome proliferator-activated receptor gamma (PPAR gamma): non-selective agonists. [Related pubchem assays: 1297, 1032 ]; type: functional
Peroxisome proliferator-activated receptor gamma/Nuclear receptor coactivator 2, sequence (P37231 whole entry): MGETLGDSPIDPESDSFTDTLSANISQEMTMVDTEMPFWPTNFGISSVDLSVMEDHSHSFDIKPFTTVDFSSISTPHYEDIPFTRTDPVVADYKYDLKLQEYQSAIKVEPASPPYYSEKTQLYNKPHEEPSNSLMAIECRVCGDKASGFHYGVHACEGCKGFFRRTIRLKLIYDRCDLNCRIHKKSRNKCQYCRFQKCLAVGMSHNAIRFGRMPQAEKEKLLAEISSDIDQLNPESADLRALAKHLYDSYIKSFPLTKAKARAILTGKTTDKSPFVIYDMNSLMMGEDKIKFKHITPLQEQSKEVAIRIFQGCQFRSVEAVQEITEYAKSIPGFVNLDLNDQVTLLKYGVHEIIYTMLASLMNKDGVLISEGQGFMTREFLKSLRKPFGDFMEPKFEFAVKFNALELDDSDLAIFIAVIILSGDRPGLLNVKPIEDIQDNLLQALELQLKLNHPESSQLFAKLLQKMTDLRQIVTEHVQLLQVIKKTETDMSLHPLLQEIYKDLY
Peroxisome proliferator-activated receptor gamma/Nuclear receptor coactivator 2, sequence (Q15596 whole entry, further chain): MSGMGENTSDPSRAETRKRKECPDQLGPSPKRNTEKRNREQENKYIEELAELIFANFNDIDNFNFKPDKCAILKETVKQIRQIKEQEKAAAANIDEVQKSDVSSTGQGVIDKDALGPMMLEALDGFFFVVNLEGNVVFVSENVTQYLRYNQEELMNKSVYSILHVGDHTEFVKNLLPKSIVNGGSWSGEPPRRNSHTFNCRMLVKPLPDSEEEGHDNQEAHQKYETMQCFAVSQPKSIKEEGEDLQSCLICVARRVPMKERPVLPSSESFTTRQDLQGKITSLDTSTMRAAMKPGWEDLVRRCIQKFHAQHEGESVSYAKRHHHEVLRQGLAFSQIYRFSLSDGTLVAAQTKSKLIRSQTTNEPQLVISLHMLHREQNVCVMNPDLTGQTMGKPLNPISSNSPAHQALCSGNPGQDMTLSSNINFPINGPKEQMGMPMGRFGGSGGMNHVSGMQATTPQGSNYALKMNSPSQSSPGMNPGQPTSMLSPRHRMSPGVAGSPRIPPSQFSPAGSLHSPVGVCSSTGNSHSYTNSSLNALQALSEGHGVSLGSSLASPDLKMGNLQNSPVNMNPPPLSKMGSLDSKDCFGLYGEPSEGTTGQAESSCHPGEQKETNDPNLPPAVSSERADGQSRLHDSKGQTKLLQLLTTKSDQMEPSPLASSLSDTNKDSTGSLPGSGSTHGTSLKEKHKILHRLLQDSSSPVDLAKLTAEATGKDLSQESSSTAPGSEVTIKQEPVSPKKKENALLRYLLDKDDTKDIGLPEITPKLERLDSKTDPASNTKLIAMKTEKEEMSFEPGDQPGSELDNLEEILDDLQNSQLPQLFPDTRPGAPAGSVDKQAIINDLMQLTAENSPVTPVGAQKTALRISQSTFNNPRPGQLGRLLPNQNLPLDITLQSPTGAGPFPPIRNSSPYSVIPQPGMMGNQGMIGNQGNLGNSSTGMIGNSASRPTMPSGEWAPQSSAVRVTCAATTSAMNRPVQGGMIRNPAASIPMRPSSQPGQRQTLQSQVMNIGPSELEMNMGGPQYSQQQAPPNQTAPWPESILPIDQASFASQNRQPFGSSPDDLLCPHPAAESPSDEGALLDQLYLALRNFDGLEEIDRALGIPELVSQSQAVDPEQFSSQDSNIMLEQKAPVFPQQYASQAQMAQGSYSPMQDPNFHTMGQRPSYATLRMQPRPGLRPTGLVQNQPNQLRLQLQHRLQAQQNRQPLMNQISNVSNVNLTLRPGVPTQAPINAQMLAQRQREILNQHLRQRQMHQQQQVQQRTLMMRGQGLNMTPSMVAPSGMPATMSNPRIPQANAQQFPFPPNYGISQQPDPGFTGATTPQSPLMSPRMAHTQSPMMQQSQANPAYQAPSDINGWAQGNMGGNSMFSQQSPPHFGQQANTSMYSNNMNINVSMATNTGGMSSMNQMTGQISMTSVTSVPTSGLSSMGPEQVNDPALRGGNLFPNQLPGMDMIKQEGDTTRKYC

[17] = target: Peroxisome proliferator-activated receptor gamma/Nuclear receptor coactivator 1 (Homo sapiens, UniProt P37231); assay: as §1, with “1 (SRC-1)” for “2 (SRC-2)”, “assays (depositor defined):AID1300, AID1808, AID504735, AID631]” for “assays: 1297, 1032 ]”; type: protein assay
[18] = target: Peroxisome proliferator-activated receptor gamma/Nuclear receptor coactivator 3 (Homo sapiens, UniProt P37231); assay: as §1, with “3 (SRC-3)” for “2 (SRC-2)”, “1301 (Confirmation screen.), 1048 (Primary screen.)]” for “1297, 1032 ]”; type: functional
Peroxisome proliferator-activated receptor gamma/Nuclear receptor coactivator 3, sequence (P37231 whole entry): as the sequence (P37231 whole entry) above
Peroxisome proliferator-activated receptor gamma/Nuclear receptor coactivator 3, sequence (Q9Y6Q9 whole entry, further chain): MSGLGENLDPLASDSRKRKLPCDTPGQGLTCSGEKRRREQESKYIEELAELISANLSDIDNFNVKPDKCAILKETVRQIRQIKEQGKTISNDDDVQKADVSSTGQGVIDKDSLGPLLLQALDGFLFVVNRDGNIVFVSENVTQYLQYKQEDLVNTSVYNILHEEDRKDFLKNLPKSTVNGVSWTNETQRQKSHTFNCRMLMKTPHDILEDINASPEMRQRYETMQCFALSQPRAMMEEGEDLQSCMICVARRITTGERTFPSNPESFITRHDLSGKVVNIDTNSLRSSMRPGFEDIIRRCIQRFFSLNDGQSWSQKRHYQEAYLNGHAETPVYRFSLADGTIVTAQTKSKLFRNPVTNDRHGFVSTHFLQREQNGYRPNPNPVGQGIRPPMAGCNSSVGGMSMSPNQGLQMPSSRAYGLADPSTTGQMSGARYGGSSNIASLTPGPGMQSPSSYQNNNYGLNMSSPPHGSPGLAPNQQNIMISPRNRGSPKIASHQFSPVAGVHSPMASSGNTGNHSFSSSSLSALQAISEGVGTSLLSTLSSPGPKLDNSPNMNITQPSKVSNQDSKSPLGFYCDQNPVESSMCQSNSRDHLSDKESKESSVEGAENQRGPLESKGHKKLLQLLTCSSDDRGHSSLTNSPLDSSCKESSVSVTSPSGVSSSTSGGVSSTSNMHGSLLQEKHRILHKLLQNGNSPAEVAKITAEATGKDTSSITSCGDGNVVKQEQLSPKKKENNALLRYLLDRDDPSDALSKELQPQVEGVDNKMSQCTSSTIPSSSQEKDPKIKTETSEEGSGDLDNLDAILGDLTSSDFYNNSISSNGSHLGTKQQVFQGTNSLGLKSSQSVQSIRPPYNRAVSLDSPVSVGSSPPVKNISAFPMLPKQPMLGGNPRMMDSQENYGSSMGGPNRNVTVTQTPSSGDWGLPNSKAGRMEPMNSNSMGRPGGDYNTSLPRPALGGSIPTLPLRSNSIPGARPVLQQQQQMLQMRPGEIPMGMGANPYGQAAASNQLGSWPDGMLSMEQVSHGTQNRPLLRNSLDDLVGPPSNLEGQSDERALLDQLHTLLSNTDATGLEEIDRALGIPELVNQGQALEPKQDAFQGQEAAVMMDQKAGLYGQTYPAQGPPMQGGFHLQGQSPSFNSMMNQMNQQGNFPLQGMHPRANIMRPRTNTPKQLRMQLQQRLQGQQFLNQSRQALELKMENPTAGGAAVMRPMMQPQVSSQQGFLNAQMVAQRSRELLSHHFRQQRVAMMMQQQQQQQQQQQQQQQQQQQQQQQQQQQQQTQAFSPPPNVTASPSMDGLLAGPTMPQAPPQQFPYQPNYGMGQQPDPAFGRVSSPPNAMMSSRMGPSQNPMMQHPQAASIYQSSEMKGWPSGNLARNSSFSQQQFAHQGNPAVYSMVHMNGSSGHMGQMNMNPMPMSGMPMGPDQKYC

Structure (SMILES): N#Cc1c(O)nc(SCc2cccc(C(F)(F)F)c2)nc1-c1ccccc1
IC50 [1]: 13.2 µM (inactive)
EC50 [2]: 2.63 µM (active)
EC50 [3]: 6.55 µM (active)
IC50 [4]: 19 µM (active)
IC50 [5]: > 20 µM (inactive)
IC50 [6]: > 20 µM (inactive)
EC50 [7]: 10.3 µM (active)

IC50 [8]: 22.1 µM (inactive)
Structure (SMILES): [O-]/[N+](=C\c1ccccc1)c1ccc(Br)cc1

AC50 [9]: 18 µM (active)
Structure (SMILES): CN(C)c1nc(N)c(C(=O)NC(=N)N)nc1Cl [5-(N,N-DIMETHYL)AMILORIDE HYDROCHLORIDE]
AC50 [10]: 17.8 µM (inconclusive)

Structure (SMILES): CCCn1cc(S(=O)(=O)CC(=O)Nc2ccc(OC)cc2OC)c2ccccc21
IC50 [8]: 59.9 µM (inactive)

Structure (SMILES): O=C(N=C1NCCS1)C1CCN(S(=O)(=O)c2cc([N+](=O)[O-])ccc2Cl)CC1
IC50 [11]: 22 µM (active)
IC50 [12]: 52.5 µM (active)
IC50 [13]: 3.39 µM (active)

IC50 [14]: 42.5 µM (active)
IC50 [8]: > 80 µM (inactive)
Structure (SMILES): COc1ccc(NC2CCCN(Cc3cccc4cnccc34)C2)cc1OC (stereo not drawn)

AC50 [15]: 1.23 µM (active)
Structure (SMILES): NC1=NC(=O)/C(=C\c2ccc(O)c([N+](=O)[O-])c2)S1

EC50 [16]: 35.4 µM (not active)
EC50 [17]: 52.9 µM (inactive)
EC50 [18]: > 79.4 µM (not active)
Structure (SMILES): CCn1c(=O)cc(SCC(=O)Nc2ccc3c(c2)OCO3)c2ccccc21

EC50 [16]: > 79.4 µM (not active)
EC50 [17]: > 79.4 µM (inactive)
EC50 [18]: > 79.4 µM (not active)
Structure (SMILES): O=C1c2ccccc2-c2cccc(NS(=O)(=O)c3ccc(C(F)(F)F)cc3)c21
